Data as given in ChEMBL document CHEMBL1629646, “Continuous cefazolin infusion to treat bone and joint infections: clinical efficacy, feasibility, safety, and serum and bone concentrations” (Antimicrob Agents Chemother, 2009).
≈ marks a conversion by molar mass, not a printed value.

Assays:
Bacillus pumilus = assay: Antimicrobial activity against Bacillus pumilus SJ1554; format: functional
Staphylococcus [1] = assay: Ratio of drug level in patient serum with bone and joint infection to MIC90 for drug-susceptible Staphylococci
Nucleic Acid = assay: Ratio of drug level in patient bone with bone and joint infection to MIC90 for drug-susceptible Staphylococci; format: functional
[2] = Ratio of drug level in bone to serum in patient with bone and joint infection at 60 to 80 mg/kg/day, iv administered as continuous infusion for 42 days; format: ADME, organism-based; set-up: route intravenous; settings: human
Streptococcus = assay: Antimicrobial activity against Streptococcus; format: functional
[3] = Drug level in patient bone with bone and joint infection measured per gram of tissue at 60 to 80 mg/kg/day, iv administered as continuous infusion for 42 days measured on day 7 by agar disk diffusion assay; format: ADME, organism-based, Bone element; set-up: route intravenous; settings: human, in vivo, 1008 h
Staphylococcus [4] = assay: Antimicrobial activity against methicillin-susceptible Staphylococcus; format: functional
[5] = Drug level in patient serum with bone and joint infection at 60 to 80 mg/kg/day, iv administered as continuous infusion for 42 days measured from day 11 to 21 by agar disk diffusion assay; format: ADME, organism-based; set-up: route intravenous; settings: human, read-out: Drug uptake
[6] = Drug level in patient serum with bone and joint infection at 60 to 80 mg/kg/day, iv administered as continuous infusion for 42 days measured from day 2 to 10 by agar disk diffusion assay; format: ADME, organism-based; set-up: route intravenous; settings: human, read-out: Drug uptake

MIC (Bacillus pumilus) [mg/L] | Kp at 1008 h [2] | MIC90 (Streptococcus) [mg/L] | bone concentration [3] [µg/g] | MIC90 (Staphylococcus [4]) [mg/L] | concentration at 1008 h [5] [µg/mL] | concentration at 1008 h [6] [µg/mL] | SMILES | Ratio (Staphylococcus [1]) | Ratio (Nucleic Acid)
> 128 |  |  |  |  |  |  | CO[C@H]1/C=C/O[C@@]2(C)Oc3c(C)c(O)c4c(O)c(c(/C=N/N5CCN(C)CC5)c(O)c4c3C2=O)NC(=O)/C(C)=C\C=C\[C@H](C)[C@H](O)[C@@H](C)[C@@H](O)[C@@H](C)[C@H](OC(C)=O)[C@@H]1C [RIFAMPIN] |  | 
> 512 |  |  |  |  |  |  | C[C@@H]1O[C@@H]1P(=O)(O)O [FOSFOMYCIN] |  | 
 | 0.25 | 0.1 (≈ 0.22 µM) | 13.5 | 1 (≈ 2.2 µM) | 57 | 63 | Cc1nnc(SCC2=C(C(=O)O)N3C(=O)[C@@H](NC(=O)Cn4cnnn4)[C@H]3SC2)s1 [CEFAZOLIN] | 60.8 | 5
